# Reference: patent publication US20260174766A1, “COMBINATION OF MENIN INHIBITOR(S) AND IMMUNOPROTEASOME INHIBITOR(S) FOR TREATMENT OF LEUKEMIA” (Medizinische Hochschule Hannover, priority 2022, published 2026)
# Assays:
# AML1-ETO = assay: Methylcellulose colony-forming assay, AML1-ETO transduced murine cells; format: cell-based, mouse; conditions: 100 nM or 200 nM; FIG. 2A right panel
# Method: Primary mouse bone marrow (BM) cells (transduced with MLL-AF9/KRAS, MLL-AF6, or AML1-ETO/KRAS) were seeded in MethoCult GF M3434 (StemCell Technologies) at a concentration of 1×10^3 cells/replicate. Colonies propagated in culture were scored at day 8. For re-plating of primary mouse BM cells, colonies were harvested from the methylcellulose medium, washed with PBS/1% FBS and seeded again at a concentration of 1×10^3 cells/replicate. MOLM-13 or ML-2 cells infected with either control or PSMB8/LMP7-specific shRNAs were plated at a concentration of 1×10^3 cells in MethoCult H4230 (StemCell Technologies) supplemented with 20% FBS and colony numbers were counted on day 10-14.
# [1] = test system: leukemic stem cell (LSC), MLL-AF9; assay: Limiting dilution assay of MLL-AF9 leukemic bone marrow cells treated ex vivo (ELDA); format: in vivo, mouse; conditions: 200 nM PR-957 ex vivo 48 hours
# MOLM-13 and ML-2 cells = assay: Global transcriptome analysis by RNA-sequencing; format: cell-based, human; conditions: 100 nM PR-957, 72 hours, FIG. 3A
# From the text: Cells were harvested and resuspended in TRIzol™, and RNA was extracted using the TRIzol-Chloroform method (Heidel et al., 2013). RNA-seq libraries were generated using SMART-Seq v4 Ultra Low Input RNA Kit (Takara Bio USA Inc., Mountain View, CA, USA) followed by Nextera XT (Illumina, San Diego, CA, USA).
# For analysis, 50 bp single-end reads (Illumina) were aligned to reference genome mm10 and gtf.-transcriptome annotation release M7 (GENCODE) using STAR two-pass mode (Dobin et al., 2013).
# GENCODE M7 gtf.-file was used for quantification, performed by STAR, followed by normalization, transformation and differential gene expression analysis in DEseq2 (Love et al., 2014). GSEA was carried out on a public server “Gene Pattern” of Broad Institute (Reich et al., 2006). For analysis of the genetic CRISPRCas9 screen, next generation sequencing was performed on an Illumina NextSeq platform (75 bp, single reads) aiming for a minimum of 30Mio reads per sample.
# Therefore, it was sought to determine to which extent the inhibition of PSMB8/LMP7 also contributes to the transcriptional regulation of human MLL-target genes. […] This cell line was selected for its sensitivity to PR-957 (FIG. 3D) and ability to be transduced among the MLLr cell lines evaluated above. […]
structure (smiles),measurement,setting,value
"COc1ccc(C[C@H](NC(=O)[C@H](C)NC(=O)CN2CCOCC2)C(=O)N[C@@H](Cc2ccccc2)C(=O)[C@]2(C)CO2)cc1 [PR-957, (2S)-3-(4-methoxyphenyl)-N-[(2S)-1-[(2S)-2-methyloxiran-2-yl]-1-oxo-3-phenylpropan-2-yl]-2-[[(2S)-2-[(2-morpholin-4-ylacetyl)amino]propanoyl]amino]propanamide]","reduction of clonogenic potential, non-MLL fusion oncogene AML1-ETO",AML1-ETO,not detectable
same,reduction in LSC frequency compared to diluent treated controls,[1],more than log-fold reduction
same,LSC frequency,"[1]; ELDA, DMSO 1/4550, FIG. 2H,I",1/57610
same,genes regulated in both cell lines upon treatment (overlap),MOLM-13 and ML-2 cells,457 genes
